For 5 compounds, MIC, MBC and Ratio results are on record in ChEMBL document CHEMBL3400015, “Tertiary amides of Salinomycin: A new group of antibacterial agents against Bacillus anthracis and methicillin-resistant Staphylococcus epidermidis” (Bioorg Med Chem Lett, 2015).

In brackets after ≈: the same amount, converted by molar mass.

Holding throughout (assay type): functional
In assay [1] the test system is Staphylococcus aureus. Kind of assay: Antimicrobial activity against Staphylococcus aureus ATCC 6538 after 18 hrs by twofold serial broth dilution method. Particulars: ATCC 6538, 18 h.
The subject of assay [2] is Staphylococcus epidermidis. Kind of assay: Antimicrobial activity against Staphylococcus epidermidis ATCC 12228 after 18 hrs by twofold serial broth dilution method. The following applies: ATCC 12228, 18 h.
Assay [3] concerns Pseudomonas aeruginosa. Kind of assay: Antimicrobial activity against Pseudomonas aeruginosa ATCC 15442 after 18 hrs by twofold serial broth dilution method. Particulars: ATCC 15442, 18 h.
The subject of assay [4] is Staphylococcus epidermidis. Kind of assay: Bactericidal activity against Staphylococcus epidermidis ATCC 12228 after 24 hrs. Particulars: ATCC 12228, 24 h, read-out: MBC99.9.
In assay [5] the test system is Escherichia coli. Kind of assay: Bactericidal activity against Escherichia coli ATCC 25922 after 24 hrs. Particulars: ATCC 25922, 24 h, read-out: MBC99.9.
Assay [6] concerns Escherichia coli. Kind of assay: Bactericidal activity against Escherichia coli NCTC 8196 after 24 hrs. Particulars: NCTC 8196, 24 h, read-out: MBC99.9.
The test system of assay [7] is Staphylococcus epidermidis. Kind of assay: Antimicrobial activity against methicillin-resistant Staphylococcus epidermidis isolate 403/10 after 18 hrs by twofold serial broth dilution method. The following applies: isolate 403/10, 18 h.
Assay [8] has as its system Staphylococcus epidermidis. Kind of assay: Antimicrobial activity against methicillin-resistant Staphylococcus epidermidis isolate 404/10 after 18 hrs by twofold serial broth dilution method. The following applies: isolate 404/10, 18 h.
In assay [9] the test system is Staphylococcus epidermidis. Kind of assay: Antimicrobial activity against methicillin-resistant Staphylococcus epidermidis isolate 405/10 after 18 hrs by twofold serial broth dilution method. Particulars: isolate 405/10, 18 h.
Assay [10] deals with Staphylococcus epidermidis. Kind of assay: Antimicrobial activity against methicillin-resistant Staphylococcus epidermidis isolate 461/11 after 18 hrs by twofold serial broth dilution method. Particulars: isolate 461/11, 18 h.
In assay [11] the test system is Staphylococcus epidermidis. Kind of assay: Antimicrobial activity against methicillin-resistant Staphylococcus epidermidis isolate 470/11 after 18 hrs by twofold serial broth dilution method. The following applies: isolate 470/11, 18 h.
Assay [12] relates to Staphylococcus epidermidis. Kind of assay: Bactericidal activity against methicillin-resistant Staphylococcus epidermidis isolate 404/10 after 24 hrs. The following applies: isolate 404/10, 24 h, read-out: MBC99.9.
Assay [13] concerns Staphylococcus epidermidis. Kind of assay: Bactericidal activity against methicillin-resistant Staphylococcus epidermidis isolate 405/10 after 24 hrs. The following applies: isolate 405/10, 24 h, read-out: MBC99.9.
In assay [14] the test system is Staphylococcus epidermidis. Kind of assay: Bactericidal activity against methicillin-resistant Staphylococcus epidermidis isolate 422/10 after 24 hrs. The following applies: isolate 422/10, 24 h, read-out: MBC99.9.
The test system of assay [15] is Staphylococcus epidermidis. Kind of assay: Bactericidal activity against methicillin-resistant Staphylococcus epidermidis isolate 461/11 after 24 hrs. The following applies: isolate 461/11, 24 h, read-out: MBC99.9.
In assay [16] the test system is Staphylococcus epidermidis. Kind of assay: Bactericidal activity against methicillin-resistant Staphylococcus epidermidis isolate 469/11 after 24 hrs. Particulars: isolate 469/11, 24 h, read-out: MBC99.9.
Assay [17] relates to Staphylococcus epidermidis. Kind of assay: Ratio of ciprofloxacin MIC to compound MIC for methicillin-resistant Staphylococcus epidermidis clinical isolate after 18 hrs by twofold serial broth dilution method.

As for `CC[C@@H](C(=O)[C@@H](C)[C@@H](O)[C@H](C)[C@@H]1O[C@@H]([C@@H](CC)C(=O)N2CCNCC2)CC[C@@H]1C)[C@H]1O[C@]2(C=C[C@@H](O)[C@]3(CC[C@@](C)([C@H]4CC[C@](O)(CC)[C@H](C)O4)O3)O2)[C@H](C)C[C@@H]1C`, the minimum inhibitory concentration (MIC) was 64 µg/mL (≈ 78.1 µM) in [1]; 128 µg/mL (≈ 156 µM) in assay [2]; greater than 256 µg/mL in assay [3]; 128 µg/mL (≈ 156 µM) in assay [7]; 64 µg/mL (≈ 78.1 µM) in assay [8]; 64 µg/mL (≈ 78.1 µM) in assay [9]. The MIC in [10] and in [11] was 256 µg/mL (≈ 313 µM) in each case. Moreover, the MBC is greater than 256 µg/mL in assay [4]; greater than 256 µg/mL in [5]; greater than 256 µg/mL in [6]; 256 µg/mL (≈ 313 µM) in assay [12]; greater than 256 µg/mL in [13]; greater than 256 µg/mL in assay [14]. Further, the MBC in assay [15] and in assay [16] was greater than 256 µg/mL each time.

As for `CC[C@@H](C(=O)[C@@H](C)[C@@H](O)[C@H](C)[C@@H]1O[C@@H]([C@@H](CC)C(=O)N(CC)CC)CC[C@@H]1C)[C@H]1O[C@]2(C=C[C@@H](O)[C@]3(CC[C@@](C)([C@H]4CC[C@](O)(CC)[C@H](C)O4)O3)O2)[C@H](C)C[C@@H]1C`, the minimum inhibitory concentration (MIC) in assay [1] is 2 µg/mL (≈ 2.48 µM); in [2], 2 µg/mL (≈ 2.48 µM); in assay [3] it was greater than 256 µg/mL; in assay [7] it was 4 µg/mL (≈ 4.96 µM); in [8], 4 µg/mL (≈ 4.96 µM); in assay [9] it was 8 µg/mL (≈ 9.92 µM). Further, the minimum inhibitory concentration (MIC) in [10] and in assay [11] was 4 µg/mL (≈ 4.96 µM) in each case. For the same compound, the MBC in assay [4] is 64 µg/mL (≈ 79.4 µM); in assay [5] it was greater than 256 µg/mL; in [6], greater than 256 µg/mL; in assay [12] it was 256 µg/mL (≈ 318 µM); in assay [13] it was 256 µg/mL (≈ 318 µM); in assay [14], 256 µg/mL (≈ 318 µM). Moreover, the MBC came out at 128 µg/mL (≈ 159 µM) in assay [15] and 256 µg/mL (≈ 318 µM) in [16]. The Ratio in [17] turned out to be 40.

Take `CC[C@@H](C(=O)[C@@H](C)[C@@H](O)[C@H](C)[C@@H]1O[C@@H]([C@@H](CC)C(=O)N(Cc2ccccc2)Cc2ccccc2)CC[C@@H]1C)[C@H]1O[C@]2(C=C[C@@H](O)[C@]3(CC[C@@](C)([C@H]4CC[C@](O)(CC)[C@H](C)O4)O3)O2)[C@H](C)C[C@@H]1C`: the MIC in assay [1] is 16 µg/mL (≈ 17.2 µM); in assay [2] it was 16 µg/mL (≈ 17.2 µM); in assay [3], greater than 256 µg/mL; in [7], 16 µg/mL (≈ 17.2 µM); in [8], 32 µg/mL (≈ 34.4 µM); in assay [9], 8 µg/mL (≈ 8.6 µM). For the same compound, the minimum inhibitory concentration (MIC) in assay [10] and in assay [11] was 32 µg/mL (≈ 34.4 µM) throughout. The MBC in assay [4] is 256 µg/mL (≈ 275 µM); in assay [5], greater than 256 µg/mL; in [6], greater than 256 µg/mL; in assay [12], greater than 256 µg/mL; in assay [13], 128 µg/mL (≈ 138 µM); in [14] it was 256 µg/mL (≈ 275 µM). The MBC in [15] and in assay [16] was greater than 256 µg/mL in each case.

On to `CCCCCCCCN(CCCCCCCC)C(=O)[C@H](CC)[C@H]1CC[C@H](C)[C@H]([C@@H](C)[C@H](O)[C@H](C)C(=O)[C@H](CC)[C@H]2O[C@]3(C=C[C@@H](O)[C@]4(CC[C@@](C)([C@H]5CC[C@](O)(CC)[C@H](C)O5)O4)O3)[C@H](C)C[C@@H]2C)O1`, for which the MIC in assay [1] was 128 µg/mL (≈ 131 µM); in assay [2], 128 µg/mL (≈ 131 µM); in assay [3] it was greater than 256 µg/mL; in assay [7], 256 µg/mL (≈ 263 µM); in assay [8] it was 256 µg/mL (≈ 263 µM); in assay [9], greater than 256 µg/mL. Moreover, the MIC in assay [10] was greater than 256 µg/mL; in assay [11] it was 256 µg/mL (≈ 263 µM). Further, the MBC in assay [4], in assay [5], in assay [6], in [12], in assay [13] and in assay [14] was greater than 256 µg/mL in each case. In addition, the MBC in [15] and in assay [16] was greater than 256 µg/mL in each case.

In the case of `CC[C@@H](C(=O)[C@@H](C)[C@@H](O)[C@H](C)[C@@H]1O[C@@H]([C@@H](CC)C(=O)N(CCOC)CCOC)CC[C@@H]1C)[C@H]1O[C@]2(C=C[C@@H](O)[C@]3(CC[C@@](C)([C@H]4CC[C@](O)(CC)[C@H](C)O4)O3)O2)[C@H](C)C[C@@H]1C`, the minimal inhibitory concentration (MIC) in assay [1] was 64 µg/mL (≈ 73.9 µM); in [2] it was 128 µg/mL (≈ 148 µM); in assay [3], greater than 256 µg/mL; in [7] it was 64 µg/mL (≈ 73.9 µM); in assay [8] it was 128 µg/mL (≈ 148 µM); in [9], 256 µg/mL (≈ 296 µM). Also, the minimal inhibitory concentration (MIC) in assay [10] and in assay [11] was 256 µg/mL (≈ 296 µM) throughout. The MBC in [4], in [5], in assay [6], in assay [12], in assay [13] and in assay [14] was greater than 256 µg/mL in each case. Moreover, the MBC in assay [15] and in [16] was greater than 256 µg/mL each time.
